From patent EP4721737A1, “USE OF PHARMACEUTICAL COMPOSITION COMPRISING COMPOUND HAVING BIS(AZANYLYLIDENE) SULFONYL STRUCTURE FOR TREATING ANEMIA-RELATED DISEASES” (Scinnohub Pharmaceutical Co., Ltd., priority 2023, dated 2024)

Target: T1, PKR in ex vivo red blood cells from healthy individuals (Homo sapiens, UniProt P30613)
T1 construct: endogenous in cells; host or cells: human red blood cells isolated from fresh peripheral blood of healthy individuals
Assay: ex vivo pyruvate kinase (PKR) activity experiment, red blood cells of healthy individuals
Assay type: cell-based
Details: 3 hours co-cultivation
Method: To test the effects of the compound of the present disclosure on PKR activation in ex vivo red blood cells from healthy individuals and patients with thalassemia.
• i. 5 g of glucose, 85 mg of adenine, and 2.625 g of mannitol were weighed and added into a 50 mL centrifuge tube. 40 mL of PBS was added to dissolve (sonicate for 30 minutes until completely dissolved). The solution was filtered through a 0.22 µm filter, then added to 460 mL of sterile PBS and mixed thoroughly.
• i. Fresh human peripheral blood was collected. K2EDTA was used as the anticoagulant. 1 part anticoagulant with 9 parts blood was mixed, then centrifuged at 500 g for 10 minutes at room temperature to remove the plasma. • ii. Packed red blood cells: 1.5 volumes of PBS were added, then centrifuged at 2000 ×g for 5 minutes at room temperature. After centrifugation, the supernatant was removed. This step was repeated twice. • iii. Diluted red blood cells: 1.5 volumes of PBS were added, then resuspended and mixed thoroughly. • iv. The diluted red blood cells were slowly added to 0.5 volume of 70% isotonic solution (e.g., 7.5 mL of diluted red blood cells + 3 mL of 70% isotonic solution Percoll) and centrifuged at 4000 ×g for 20 minutes at 4°C. • v. The supernatant was removed. The red blood cells at the bottom were washed once with 4-5 mL of PBS to elute the Percoll gel, and then centrifuged at 2000 ×g for 5 minutes at room temperature. • vi. The supernatant was removed. The red blood cells were counted and then diluted in AGAM medium containing 10% FBS to a density of 2 × 10^8 cells/mL for storage at 4°C.
i. The red blood cells were seeded into a 96-well plate at a uniform density of 1 × 10^7 cells/mL, with 100 µL per well. The test compounds (dissolved in DMSO) were diluted and added to the cell culture medium, resulting in final compound concentrations of 3000, 1000, 300, 100, 10, 3, and 1 nM (with 1% DMSO). The cells and compounds were co-cultivated for 3 hours in a 37°C incubator with 5% CO2. Subsequently, the plate was centrifuged at 2000 g for 20 minutes, and the supernatant was discarded. 100 µL of red blood cell lysis buffer was added to the cell pellet, vortexed for 20 minutes, and centrifuged at 4000 g for 5 minutes. The supernatant was collected for analysis. ii. The reaction system was prepared according to the kit instructions (shown as the table below), 10 µL of the reaction system was added to each well of a 384-well plate, and 10 µL of red blood cell lysis buffer was took and mixed well (20 µL reaction system).
iii. A black, transparent-bottomed 384-well plate was placed in a microplate reader to measure fluorescence at 540/590 nm. The fluorescence was read every 2 minutes for 1 hour.
i. The Slope value was calculated over the assay time. Compound activation percentage was calculated using the 1% DMSO well as the control well. Activation percentage = (Slope of compound well / Slope of control well) × 100% ii. Dose-response curve was fit using the logarithmic compound concentration on the X-axis and the percent activation percentage on the Y-axis, the log(agonist) vs. response - variable slope function in GraphPad Prism 5 was used to determine the AC50 value for each compound on PKR activity. Y = min + (max−min)/(1+10^(∧)((LogAC50−X)×Hillslope)). [formula] The PKR agonist effects of the compound of the present disclosure on ex vivo red blood cells from healthy individuals and thalassemia patients were determined using the above assay. The AC50 values measured on ex vivo red blood cells from healthy individuals are as follows (A represents 0-100 nM, B represents 101-300 nM, and C represents 300-1000 nM): […]

T1 sequence (P30613 whole entry): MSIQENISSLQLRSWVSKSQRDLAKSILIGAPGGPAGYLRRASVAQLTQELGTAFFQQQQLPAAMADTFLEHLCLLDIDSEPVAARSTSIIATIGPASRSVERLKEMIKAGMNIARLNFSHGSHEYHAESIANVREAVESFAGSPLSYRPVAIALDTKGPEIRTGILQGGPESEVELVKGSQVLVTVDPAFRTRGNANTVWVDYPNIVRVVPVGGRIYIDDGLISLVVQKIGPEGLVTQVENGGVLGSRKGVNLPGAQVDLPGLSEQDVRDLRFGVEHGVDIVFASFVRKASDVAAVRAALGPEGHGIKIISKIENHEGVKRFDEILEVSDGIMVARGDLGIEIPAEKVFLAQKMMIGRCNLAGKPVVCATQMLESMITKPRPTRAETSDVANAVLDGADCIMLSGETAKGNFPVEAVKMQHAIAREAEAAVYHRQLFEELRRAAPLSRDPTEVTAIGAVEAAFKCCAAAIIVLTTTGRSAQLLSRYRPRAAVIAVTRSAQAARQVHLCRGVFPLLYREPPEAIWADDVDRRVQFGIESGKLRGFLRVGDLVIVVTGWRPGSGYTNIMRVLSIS

AC50 | SMILES
0.101 to 0.3 µM | O=C([C@H](CO)c1ccccc1)N1CC(=C2CN(S(=O)(=O)c3cnc4c(c3)OCCO4)C2)C1 [Compound 1, (S)-1-(1'-((2,3-dihydro-[1,4]dioxino[2,3-b]pyridin-7-yl)sulfonyl)-1',4'-dihydro-2H,2'H-[3,3'-diazetidinylidene]-1(4H)-yl)-3-hydroxy-2-phenylpropan-1-one]
0.3 to 1 µM | O=C([C@H](CO)c1ccccc1)N1CC(=C2CN(S(=O)(=O)c3ccc4c(c3)OCCO4)C2)C1 [Compound 2, (S) -1-(1'-((2,3-dihydrobenzo[b][1,4]dioxin-6-yl)sulfonyl)-1',4'-dihydro-2H,2'H-[3,3'-diazetidinylidene]-1(4H)-yl)-3-hydroxy-2-phenylpropan-1-one]
0.101 to 0.3 µM | O=C([C@H](CO)c1ccccc1)N1CC(=C2CN(S(=O)(=O)c3ccc4ncsc4c3)C2)C1 [Compound 3, (S)-1-(1'-(benzo[d]thiazol-6-ylsulfonyl)-1',4'-dihydro-2H,2'H-[3,3'-diazetidinylidene]-1(4H)-yl)-3-hy droxy-2-phenylpropan-1-one]
< 0.1 µM | O=C([C@H](CO)c1ccccc1)N1CC(=C2CN(S(=O)(=O)c3ccccn3)C2)C1 [Compound 4, (S)-3-hydroxy-2-phenyl-1-(1'-(pyridin-2-ylsulfonyl)-1',4'-dihydro-2H,2'H-[3.3'-diazetidinylidene]-1(4H)-yl)propan-1-one]
0.101 to 0.3 µM | COc1ccc(S(=O)(=O)N2CC(=C3CN(C(=O)[C@H](CO)c4ccccc4)C3)C2)cc1 [Compound 5, (S)-3-hydroxy-1-(1'-((4-methoxyphenyl)sulfonyl)-1',4'-dihydro-2H,2'H-[3,3'-diazetidinylidene]-1(4H )-yl)-2-phenylpropan-1-one]
< 0.1 µM | O=C([C@H](CO)c1ccccc1)N1CC(=C2CN(S(=O)(=O)c3ccc(OC(F)F)cc3)C2)C1 [Compound 7, (S)-1-(1'-((4-(difluoromethoxy)phenyl)sulfonyl)-1',4'-dihydro-2H,2'H-[3,3'-diazetidinylidene]-1(4H)-yl)-3-hydroxy-2-phenylpropan-1-one]
< 0.1 µM | O=C([C@H](CO)c1ccccc1)N1CC(=C2CN(S(=O)(=O)c3ccc(OC(F)(F)F)cc3)C2)C1 [Compound 9, (S)-3-hydroxy-2-phenyl-1-(1'-((4-(trifluoromethoxy)phenyl)sulfonyl)-1',4'-dihydro-2H,2'H-[3,3'-diazetidinylidene]-1(4H)-yl)propan-1-one]
< 0.1 µM | O=C([C@H](CO)c1ccccc1)N1CC(=C2CN(S(=O)(=O)c3ccc(F)cc3)C2)C1 [Compound 10]
< 0.1 µM | O=C([C@H](CO)c1ccccc1)N1CC(=C2CN(S(=O)(=O)c3ccc(OC(F)F)c(F)c3)C2)C1 [Compound 11]
0.3 to 1 µM | O=C([C@H](CO)c1ccccc1)N1CC(=C2CN(S(=O)(=O)c3ccc4c(c3)NCCO4)C2)C1 [Compound 12, (S)-1-(1'-((3,4-dihydro-2H-benzo[b][1,4]oxazin-6-yl)sulfonyl)-1',4'-dihydro-2H,2'H-[3,3'-diazetidinylidene]-1(4H)-yl)-3-hydroxy-2-phenylpropan-1-one]
< 0.1 µM | O=C(C(CO)c1ccc(F)cc1)N1CC(=C2CN(S(=O)(=O)c3ccc(OC(F)F)cc3)C2)C1 (stereo not shown) [Compound 16, 1-(1'-((4-(difluoromethoxy)phenyl)sulfonyl)-1',4'-dihydro-2H,2'H-[3,3'-diazetidinylidene]-1(4H)-yl)-2-(4-fluorophenyl)-3-hydroxypropan-1-one]
0.3 to 1 µM | O=C([C@H](CO)c1ccccc1)N1CC(=C2CN(S(=O)(=O)c3cc(F)c4c(c3)OCCO4)C2)C1 [Compound 20, (S)-1-(1'-((8-fluoro-2,3-dihydrobenzo[b][1,4]dioxin-6-yl)sulfonyl)-1',4'-dihydro-2H,2'H-[3,3'-diazetidinylidene]-1(4H)-yl)-3-hydroxy-2-phenylpropan-1-one]
< 0.1 µM | NC(C(=O)N1CC(=C2CN(S(=O)(=O)c3ccc(OC(F)F)cc3)C2)C1)c1ccc(F)cc1 (stereo not shown) [Compound 22, 2-amino-1-(1'-((4-(difluoromethoxy)phenyl)sulfonyl)-1',4'-dihydro-2H,2'H-[3,3'-diazetidinylidene]-1 (4H)-yl)-2-(4-fluorophenyl)ethan-1-one]
0.3 to 1 µM | O=C([C@H](CO)c1ccc(F)cc1)N1CC(=C2CN(S(=O)(=O)c3ccc4ncsc4c3)C2)C1 [Compound 25, (S)-1-(1'-(benzo[d]thiazol-6-ylsulfonyl)-1',4'-dihydro-2H,2'H-[3,3'-diazetidinylidene]-1(4H)-yl)-2-(4-fluorophenyl)-3-hydroxypropan-1-one]
< 0.1 µM | O=C(C(CO)c1ccc(F)cc1)N1CC(=C2CN(S(=O)(=O)c3ccc4c(c3)OC(F)(F)O4)C2)C1 (stereo not shown) [Compound 36, 1-(1'-((2,2-difluorobenzo[d][1,3]dioxolan-5-yl)sulfonyl)-1',4'-dihydro-2H,2'H-[3,3'-diazetidinylidene]-1(4H)-yl)-2-(4-fluorophenyl)-3-hydroxypropan-1-one]
0.3 to 1 µM | O=C(N1CC(=C2CN(S(=O)(=O)c3ccc(OC(F)F)cc3)C2)C1)C1(c2ccccc2)CCOC1 (stereo not shown) [Compound 37, (1'-((4-(difluoromethoxy)phenyl)sulfonyl)-1',4'-dihydro-2H,2'H-[3,3'-diazetidinylidene]-1(4H)-yl)(3-phenyltetrahydrofuran-3-yl)methanone]
0.3 to 1 µM | O=C1COc2ccc(S(=O)(=O)N3CC(=C4CN(C(=O)[C@H](CO)c5ccccc5)C4)C3)cc2N1 [Compound 40, (S)-6-((1'-(3-hydroxy-2-phenylpropionyl)-1',4'-dihydro-2H,2'H-[3,3'-diazetidinylidene]-1(4H)-yl)sulfonyl)-2H-benzo[b][1,4]oxazine-3(4H)-one]
< 0.1 µM | CN1C(=O)COc2ccc(S(=O)(=O)N3CC(=C4CN(C(=O)[C@H](CO)c5ccccc5)C4)C3)cc21 [Compound 41, (S)-6-((1'-(3-hydroxy-2-phenylpropionyl)-1',4'-dihydro-2H,2'H-[3,3'-diazetidinylidene]-1(4H)-yl)sulfonyl)-4-methyl-2H-benzo[b][1,4]oxazine-3(4H)-one]
0.101 to 0.3 µM | CN1CCN(c2cccc(C(O)C(=O)N3CC(=C4CN(S(=O)(=O)c5ccc6ncsc6c5)C4)C3)c2)CC1 (stereo not shown) [Compound 43, 1-(1'-(benzo[d]thiazol-6-ylsulfonyl)-1',4'-dihydro-2H,2'H-[3,3'-diazetidinylidene]-1(4H)-yl)-2-hydroxy-2-(3-(4-methylpiperazin-1-yl)phenyl)ethan-1-one]
0.3 to 1 µM | O=C(C(CO)c1cccnc1)N1CC(=C2CN(S(=O)(=O)c3ccc4ncsc4c3)C2)C1 (stereo not shown) [Compound 48, 1-(1'-(benzo[d]thiazol-6-ylsulfonyl)-1',4'-dihydro-2H,2'H-[3,3'-diazetidinylidene]-1(4H)-yl)-3-hydroxy-2-(pyridin-3-yl)propan-1-one]
< 0.1 µM | O=C(C(CO)c1ccc(F)c(Cl)c1)N1CC(=C2CN(S(=O)(=O)c3ccccn3)C2)C1 (stereo not shown) [Compound 59, 2-(3-chloro-4-fluorophenyl)-3-hydroxy-1-(1'-(pyridin-2-ylsulfonyl)-1',4'-dihydro-2H,2'H-[3,3'-diazetidinylidene]-1(4H)-yl)propan-1-one]
0.101 to 0.3 µM | O=C(C(CO)c1ccc(F)c(F)c1)N1CC(=C2CN(S(=O)(=O)c3ccccn3)C2)C1 (stereo not shown) [Compound 61, 2-(3,4-difluorophenyl)-3-hydroxy-1-(1'-(pyridin-2-ylsulfonyl)-1',4'-dihydro-2H,2'H-[3,3'-diazetidinylidene]-1(4H)-yl)propan-1-one]
